From patent US11759455B2, “Substituted 1H-imidazo[4,5-b]pyridin-2(3H)-ones and their use as GLUN2B receptor modulators” (JANSSEN PHARMACEUTICA NV, priority 2016, dated 2023)
Where two headings read alike, the source gives them in different places.

Molecular target: T1, human GluN1/GluN2B NMDA receptors (Homo sapiens, UniProt Q13224)
T1 construct: expressed in transfected cells
Assay: Cell-based calcium flux (FLIPR) assay on cloned human NR1/NR2B ion channels expressed in mammalian cells (standard and HTS buffer variants);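 further: stable Tet-On inducible cell line, Ca2+ influx triggered by glutamate at about EC40 plus 10 µM glycine, fluorescent dye read-out over 5 min, normalized to control wells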

[1] = standard assay buffer (0.5 mM MgCl2 in dye loading buffer; 137 mM NaCl, 4 mM KCl in assay buffer), human GluN1/GluN2B, read-out: NR2B IC50 (μM) standard assay
[2] = HTS assay buffer (1.5 mM MgCl2 in dye loading buffer; 150 mM NaCl, 3 mM KCl in assay buffer), human GluN1/GluN2B, read-out: NR2B IC50 (μM) HTS assay
[3] = HTS assay buffer (1.5 mM MgCl2 dye loading; 150 mM NaCl, 3 mM KCl assay buffer), human GluN1/GluN2B cells, read-out: NR2B IC50 (μM) HTS assay
[4] = standard assay buffer (0.5 mM MgCl2 dye loading; 137 mM NaCl, 4 mM KCl assay buffer), human GluN1/GluN2B cells, read-out: NR2B IC50 (μM) standard assay

T1 sequence (Q13224 27-1484, other chains not shown): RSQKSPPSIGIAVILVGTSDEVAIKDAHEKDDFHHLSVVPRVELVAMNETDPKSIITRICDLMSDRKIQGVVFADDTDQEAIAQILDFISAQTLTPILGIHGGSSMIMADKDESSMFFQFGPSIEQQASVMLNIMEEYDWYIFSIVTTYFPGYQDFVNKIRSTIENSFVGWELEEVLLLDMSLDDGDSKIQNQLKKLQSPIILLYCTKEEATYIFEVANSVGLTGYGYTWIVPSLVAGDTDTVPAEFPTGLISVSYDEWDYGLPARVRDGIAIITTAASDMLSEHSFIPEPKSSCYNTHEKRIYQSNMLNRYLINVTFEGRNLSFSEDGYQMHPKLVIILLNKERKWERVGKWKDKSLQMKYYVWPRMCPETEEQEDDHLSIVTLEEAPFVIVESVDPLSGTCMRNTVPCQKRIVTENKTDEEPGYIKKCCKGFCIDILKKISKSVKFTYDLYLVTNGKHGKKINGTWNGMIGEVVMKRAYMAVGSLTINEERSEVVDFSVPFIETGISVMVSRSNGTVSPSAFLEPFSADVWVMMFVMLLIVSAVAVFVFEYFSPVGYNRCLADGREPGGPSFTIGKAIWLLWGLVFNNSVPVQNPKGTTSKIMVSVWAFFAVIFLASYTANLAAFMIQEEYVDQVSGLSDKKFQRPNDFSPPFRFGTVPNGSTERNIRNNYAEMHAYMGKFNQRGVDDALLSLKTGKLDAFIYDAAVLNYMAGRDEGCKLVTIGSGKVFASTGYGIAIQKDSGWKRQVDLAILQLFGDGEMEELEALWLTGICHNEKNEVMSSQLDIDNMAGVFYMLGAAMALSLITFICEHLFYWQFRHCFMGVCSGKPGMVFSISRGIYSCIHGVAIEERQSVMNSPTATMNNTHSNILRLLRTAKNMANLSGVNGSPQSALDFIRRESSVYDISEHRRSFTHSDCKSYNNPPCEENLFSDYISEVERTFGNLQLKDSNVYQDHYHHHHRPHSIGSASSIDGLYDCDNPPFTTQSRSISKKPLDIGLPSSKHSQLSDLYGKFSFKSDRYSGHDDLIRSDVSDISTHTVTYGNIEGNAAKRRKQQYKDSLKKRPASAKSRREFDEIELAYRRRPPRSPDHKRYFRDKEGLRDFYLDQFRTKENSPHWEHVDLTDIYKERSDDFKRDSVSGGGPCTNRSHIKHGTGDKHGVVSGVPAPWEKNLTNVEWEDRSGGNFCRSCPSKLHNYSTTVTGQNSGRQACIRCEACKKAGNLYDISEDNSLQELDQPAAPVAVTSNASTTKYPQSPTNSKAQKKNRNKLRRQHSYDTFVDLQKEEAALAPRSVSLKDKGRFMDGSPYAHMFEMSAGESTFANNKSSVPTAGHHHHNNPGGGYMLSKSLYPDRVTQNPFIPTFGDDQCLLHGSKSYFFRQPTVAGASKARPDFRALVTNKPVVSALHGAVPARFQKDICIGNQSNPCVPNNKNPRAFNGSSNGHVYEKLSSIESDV

IC50 [1] [µM]	IC50 [4] [µM]	Compound	also measured
0.087		Cc1cc(Cn2c(=O)n(C)c3ncc(-c4ccc(C(F)F)s4)cc32)no1 [Example 564, 6-[5-(Difluoromethyl)-2-thienyl]-3-methyl-1-[(5-methylisoxazol-3-yl)methyl]imidazo[4,5-b]pyridin-2-one]	
0.974		Cc1c(F)ccc(-c2cnc3c(c2)n(CC(=O)N2CCC2)c(=O)n3CF)c1F [Example 595, 1-[2-(Azetidin-1-yl)-2-oxo-ethyl]-6-(2,4-difluoro-3-methyl-phenyl)-3-(fluoromethyl)imidazo[4,5-b]pyridin-2-one]	
0.034		Cc1cc(Cn2c(=O)[nH]c3ncc(-c4ccc(F)cc4C)cc32)no1 [Example 522, 6-(4-Fluoro-2-methyl-phenyl)-1-[(5-methylisoxazol-3-yl)methyl]-3H-imidazo[4,5-b]pyridin-2-one]	
0.043		Cc1noc(Cn2c(=O)n(C)c3ncc(-c4ccc(F)c(C)c4F)cc32)n1 [Example 573, 6-(2,4-Difluoro-3-methyl-phenyl)-3-methyl-1-[(3-methyl-1,2,4-oxadiazol-5-yl)methyl]imidazo[4,5-b]pyridin-2-one]	
0.014		O=C(Cn1c(=O)[nH]c2ncc(-c3ccc(C(F)(F)F)s3)cc21)N1CC(F)C1 [Example 578, 1-[2-(3-Fluoroazetidin-1-yl)-2-oxo-ethyl]-6-[5-(trifluoromethyl)-2-thienyl]-3H-imidazo[4,5-b]pyridin-2-one]	
0.022		Cn1c(=O)n(Cc2cccnn2)c2cc(-c3ccc(F)c(C(F)F)c3)cnc21 [Example 541, 6-[3-(Difluoromethyl)-4-fluoro-phenyl]-3-methyl-1-(pyridazin-3-ylmethyl)imidazo[4,5-b]pyridin-2-one]	
0.316		Cc1noc(Cn2c(=O)n(C)c3ncc(-c4ccc(C(F)F)s4)cc32)n1 [Example 563, 6-[5-(Difluoromethyl)-2-thienyl]-3-methyl-1-[(3-methyl-1,2,4-oxadiazol-5-yl)methyl]imidazo[4,5-b]pyridin-2-one]	
0.015		Cc1c(F)ccc(-c2cnc3[nH]c(=O)n(CC(=O)N4CCC4)c3c2)c1F [Example 579, 1-[2-(Azetidin-1-yl)-2-oxo-ethyl]-6-(2,4-difluoro-3-methyl-phenyl)-3H-imidazo[4,5-b]pyridin-2-one]	
0.082		Cn1c(=O)n(CC(=O)N2CC(F)(F)C2)c2cc(-c3ccc(Cl)c(OC(F)F)c3)cnc21 [Example 594, 6-[4-Chloro-3-(difluoromethoxy)phenyl]-1-[2-(3,3-difluoroazetidin-1-yl)-2-oxo-ethyl]-3-methyl-imidazo[4,5-b]pyridin-2-one]	
0.106		O=C(Cn1c(=O)n(CCF)c2ncc(-c3ccc(C(F)(F)F)s3)cc21)N1CCC1 [Example 535, 1-[2-(Azetidin-1-yl)-2-oxo-ethyl]-3-(2-fluoroethyl)-6-[5-(trifluoromethyl)-2-thienyl]imidazo[4,5-b]pyridin-2-one]	

Further lines, the compound ahead of its results:

Compound	IC50 [1] [µM]	IC50 [4] [µM]	also measured
N#Cc1ccccc1Cn1c(=O)[nH]c2ncc(-c3ccc(Cl)cc3)cc21 [Example 482, 2-[[6-(4-Chlorophenyl)-2-oxo-3H-imidazo[4,5-b]pyridin-1-yl]methyl]benzonitrile]			IC50 [2]: 1.41 µM
CCOc1ccc(F)cc1-c1cnc2[nH]c(=O)n(Cc3c(C)noc3C)c2c1 [Example 514, 1-[(3,5-Dimethylisoxazol-4-yl)methyl]-6-(2-ethoxy-5-fluoro-phenyl)-3H-imidazo[4,5-b]pyridin-2-one]			IC50 [2]: > 29 µM
COc1ccc(-c2cnc3[nH]c(=O)n(CC(=O)NC4CC4)c3c2)c(Cl)c1 [Example 37, 2-[6-(2-Chloro-4-methoxy-phenyl)-2-oxo-3H-imidazo[4,5-b]pyridin-1-yl]-N-cyclopropyl-acetamide]			IC50 [3]: 1.38 µM
O=C(Cn1c(=O)[nH]c2ncc(-c3cc(F)cc(F)c3)cc21)NC1CC1 [Example 447, N-Cyclopropyl-2-[6-(3,5-difluorophenyl)-2-oxo-3H-imidazo[4,5-b]pyridin-1-yl]acetamide]	0.184		
Cc1cc(F)ccc1-c1cnc2[nH]c(=O)n(CC(=O)N(C)C3CC3)c2c1 [Example 40, N-Cyclopropyl-2-[6-(4-fluoro-2-methyl-phenyl)-2-oxo-3H-imidazo[4,5-b]pyridin-1-yl]-N-methyl-acetamide]			IC50 [3]: 1.82 µM
O=c1[nH]c2ncc(-c3cccc(C(F)(F)F)c3)cc2n1CCNC1CC1 [Example 148, 1-[2-(Cyclopropylamino)ethyl]-6-[3-(trifluoromethyl)phenyl]-3H-imidazo[4,5-b]pyridin-2-one]		0.505	
Cn1c(=O)n(CC(=O)N2CC(F)C2)c2cc(-c3cnc(C(F)(F)F)s3)cnc21 [Example 116, 1-[2-(3-Fluoroazetidin-1-yl)-2-oxo-ethyl]-3-methyl-6-[2-(trifluoromethyl)thiazol-5-yl]imidazo[4,5-b]pyridin-2-one]		0.705	
COc1ccc(-c2cnc3[nH]c(=O)n(Cc4ccccc4C#N)c3c2)c(OC)c1 [Example 487, 2-[[6-(2,4-Dimethoxyphenyl)-2-oxo-3H-imidazo[4,5-b]pyridin-1-yl]methyl]benzonitrile]			IC50 [2]: 2.57 µM
O=c1[nH]c2ncc(-c3cccc(C(F)(F)F)c3)cc2n1Cc1csnn1 [Example 243, 1-(Thiadiazol-4-ylmethyl)-6-[3-(trifluoromethyl)phenyl]-3H-imidazo[4,5-b]pyridin-2-one]		0.065	
CN(C)c1cccc(-c2cnc3[nH]c(=O)n(CC4CC4)c3c2)c1 [Example 473, 1-(Cyclopropylmethyl)-6-[3-(dimethylamino)phenyl]-3H-imidazo[4,5-b]pyridin-2-one]			IC50 [2]: 15.7 µM
Cc1c(F)ccc(-c2cnc3c(c2)n(Cc2cncc(Cl)c2)c(=O)n3C)c1F [Example 368, 1-[(5-Chloro-3-pyridyl)methyl]-6-(2,4-difluoro-3-methyl-phenyl)-3-methyl-imidazo[4,5-b]pyridin-2-one]	0.356		
O=c1[nH]c2ncc(-c3cc(F)cc(F)c3)cc2n1CC1CC1 [Example 470, 1-(Cyclopropylmethyl)-6-(3,5-difluorophenyl)-3H-imidazo[4,5-b]pyridin-2-one]			IC50 [2]: 0.509 µM
O=c1[nH]c2ncc(-c3cc(F)cc(F)c3)cc2n1CCN1CCCC1 [Example 174, 6-(3,5-Difluorophenyl)-1-(2-pyrrolidin-1-ylethyl)-3H-imidazo[4,5-b]pyridin-2-one]		1.25	
Cc1cc(F)ccc1-c1cnc2c(c1)n(CC(=O)NC1CC1)c(=O)n2C [Example 42, N-Cyclopropyl-2-[6-(4-fluoro-2-methyl-phenyl)-3-methyl-2-oxo-imidazo[4,5-b]pyridin-1-yl]acetamide]			IC50 [3]: 2.71 µM
CC1(NC(=O)Cn2c(=O)[nH]c3ncc(-c4cccc(C(F)(F)F)c4)cc32)CC(F)(F)C1 [Example 209, N-(3,3-Difluoro-1-methyl-cyclobutyl)-2-[2-oxo-6-[3-(trifluoromethyl)phenyl]-3H-imidazo[4,5-b]pyridin-1-yl]acetamide]		0.443	
CCOc1cccc(-c2cnc3[nH]c(=O)n(CC(=O)NC4CC4)c3c2)c1 [Example 449, N-Cyclopropyl-2-[6-(3-ethoxyphenyl)-2-oxo-3H-imidazo[4,5-b]pyridin-1-yl]acetamide]			IC50 [2]: 0.638 µM
O=c1[nH]c2ncc(-c3cccc(C(F)F)c3)cc2n1Cc1ccccn1 [Example 287, 6-[3-(Difluoromethyl)phenyl]-1-(2-pyridylmethyl)-3H-imidazo[4,5-b]pyridin-2-one]		0.107	
Cc1csc(-c2cnc3c(c2)n(Cc2cc(C)on2)c(=O)n3C)c1 [Example 14, 3-Methyl-1-[(5-methylisoxazol-3-yl)methyl]-6-(4-methyl-2-thienyl)imidazo[4,5-b]pyridin-2-one]		0.097	
Cn1c(=O)n(Cc2cncnc2)c2cc(-c3ccc(F)c(F)c3)cnc21 [Example 60, 6-(3,4-Difluorophenyl)-3-methyl-1-(pyrimidin-5-ylmethyl)imidazo[4,5-b]pyridin-2-one]		0.45	
O=c1[nH]c2ncc(-c3cccc(OC(F)F)c3)cc2n1Cc1cncc(F)c1 [Example 304, 6-[3-(Difluoromethoxy)phenyl]-1-[(5-fluoro-3-pyridyl)methyl]-3H-imidazo[4,5-b]pyridin-2-one]		0.021	
Cc1cc(-c2cnc3c(c2)n(Cc2cncc(Cl)c2)c(=O)n3C)ccc1F [Example 367, 1-[(5-Chloro-3-pyridyl)methyl]-6-(4-fluoro-3-methyl-phenyl)-3-methyl-imidazo[4,5-b]pyridin-2-one]	0.117		
Cn1c(=O)n(CC(=O)NC2CC(F)(F)C2)c2cc(-c3cccc(C(F)(F)F)c3)cnc21 [Example 200, N-(3,3-Difluorocyclobutyl)-2-[3-methyl-2-oxo-6-[3-(trifluoromethyl)phenyl]imidazo[4,5-b]pyridin-1-yl]acetamide]		0.174	
Cn1c(=O)n(Cc2ccncn2)c2cc(-c3cccc(C(F)(F)F)c3)cnc21 [Example 246, 3-Methyl-1-(pyrimidin-4-ylmethyl)-6-[3-(trifluoromethyl)phenyl]imidazo[4,5-b]pyridin-2-one]		0.349	
CN(C)C(=O)Cn1c(=O)n(C)c2ncc(-c3ccc(C(F)F)s3)cc21 [Example 94, 2-[6-[5-(Difluoromethyl)-2-thienyl]-3-methyl-2-oxo-imidazo[4,5-b]pyridin-1-yl]-N,N-dimethyl-acetamide]		0.017	
COC1CCN(CCn2c(=O)[nH]c3ncc(-c4cc(F)cc(F)c4)cc32)C1 (stereo not drawn) [Example 176, 6-(3,5-Difluorophenyl)-1-[2-(3-methoxypyrrolidin-1-yl)ethyl]-3H-imidazo[4,5-b]pyridin-2-one]		4.37	
Cc1cccnc1Cn1c(=O)[nH]c2ncc(-c3cccc(F)c3)cc21 [Example 285, 6-(3-Fluorophenyl)-1-[(3-methyl-2-pyridyl)methyl]-3H-imidazo[4,5-b]pyridin-2-one]		> 10	
